We go through four compounds from ChEMBL document CHEMBL1201862, “PubChem BioAssay data set” (2004).

SMILES strings stand for the structures. Calls of active or inactive are those of the source. Where only a bound is given, the exact number is not on record here.

For experiment [1], the target named is T1, Replicative DNA helicase DnaB (Mycobacterium tuberculosis, UniProt P9WMR3).
T1 sequence (P9WMR3 whole entry): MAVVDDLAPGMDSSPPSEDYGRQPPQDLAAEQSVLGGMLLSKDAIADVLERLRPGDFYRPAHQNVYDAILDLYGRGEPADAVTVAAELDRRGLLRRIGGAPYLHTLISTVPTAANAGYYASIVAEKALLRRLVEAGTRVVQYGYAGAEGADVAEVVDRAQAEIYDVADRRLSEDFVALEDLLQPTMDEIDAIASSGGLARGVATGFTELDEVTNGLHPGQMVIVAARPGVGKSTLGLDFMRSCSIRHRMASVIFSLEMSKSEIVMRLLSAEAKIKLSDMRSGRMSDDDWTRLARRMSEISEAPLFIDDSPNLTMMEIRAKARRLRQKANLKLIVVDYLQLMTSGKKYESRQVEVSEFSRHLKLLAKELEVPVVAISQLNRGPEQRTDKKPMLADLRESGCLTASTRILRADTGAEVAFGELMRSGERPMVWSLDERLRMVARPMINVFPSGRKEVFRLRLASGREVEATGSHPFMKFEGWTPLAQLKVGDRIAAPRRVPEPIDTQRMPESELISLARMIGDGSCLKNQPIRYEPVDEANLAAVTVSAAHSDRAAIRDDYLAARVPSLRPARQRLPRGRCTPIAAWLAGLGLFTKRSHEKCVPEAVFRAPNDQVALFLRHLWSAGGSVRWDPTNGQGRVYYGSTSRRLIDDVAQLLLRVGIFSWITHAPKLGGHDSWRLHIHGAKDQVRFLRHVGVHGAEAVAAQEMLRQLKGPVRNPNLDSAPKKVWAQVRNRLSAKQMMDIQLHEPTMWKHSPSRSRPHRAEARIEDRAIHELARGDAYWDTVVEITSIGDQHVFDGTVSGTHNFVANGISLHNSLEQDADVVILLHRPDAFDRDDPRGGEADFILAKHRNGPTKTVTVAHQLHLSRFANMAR
Nature of the experiment: DnaB intein splicing inhibitors, dose response, biochemical, cell-free fluorescence (AID 449749). The experiment is classed as functional.

Experiment [2] deals with T2, 1-phosphatidylinositol 4,5-bisphosphate phosphodiesterase gamma-1 (Homo sapiens, UniProt P19174).
T2 sequence (P19174 whole entry): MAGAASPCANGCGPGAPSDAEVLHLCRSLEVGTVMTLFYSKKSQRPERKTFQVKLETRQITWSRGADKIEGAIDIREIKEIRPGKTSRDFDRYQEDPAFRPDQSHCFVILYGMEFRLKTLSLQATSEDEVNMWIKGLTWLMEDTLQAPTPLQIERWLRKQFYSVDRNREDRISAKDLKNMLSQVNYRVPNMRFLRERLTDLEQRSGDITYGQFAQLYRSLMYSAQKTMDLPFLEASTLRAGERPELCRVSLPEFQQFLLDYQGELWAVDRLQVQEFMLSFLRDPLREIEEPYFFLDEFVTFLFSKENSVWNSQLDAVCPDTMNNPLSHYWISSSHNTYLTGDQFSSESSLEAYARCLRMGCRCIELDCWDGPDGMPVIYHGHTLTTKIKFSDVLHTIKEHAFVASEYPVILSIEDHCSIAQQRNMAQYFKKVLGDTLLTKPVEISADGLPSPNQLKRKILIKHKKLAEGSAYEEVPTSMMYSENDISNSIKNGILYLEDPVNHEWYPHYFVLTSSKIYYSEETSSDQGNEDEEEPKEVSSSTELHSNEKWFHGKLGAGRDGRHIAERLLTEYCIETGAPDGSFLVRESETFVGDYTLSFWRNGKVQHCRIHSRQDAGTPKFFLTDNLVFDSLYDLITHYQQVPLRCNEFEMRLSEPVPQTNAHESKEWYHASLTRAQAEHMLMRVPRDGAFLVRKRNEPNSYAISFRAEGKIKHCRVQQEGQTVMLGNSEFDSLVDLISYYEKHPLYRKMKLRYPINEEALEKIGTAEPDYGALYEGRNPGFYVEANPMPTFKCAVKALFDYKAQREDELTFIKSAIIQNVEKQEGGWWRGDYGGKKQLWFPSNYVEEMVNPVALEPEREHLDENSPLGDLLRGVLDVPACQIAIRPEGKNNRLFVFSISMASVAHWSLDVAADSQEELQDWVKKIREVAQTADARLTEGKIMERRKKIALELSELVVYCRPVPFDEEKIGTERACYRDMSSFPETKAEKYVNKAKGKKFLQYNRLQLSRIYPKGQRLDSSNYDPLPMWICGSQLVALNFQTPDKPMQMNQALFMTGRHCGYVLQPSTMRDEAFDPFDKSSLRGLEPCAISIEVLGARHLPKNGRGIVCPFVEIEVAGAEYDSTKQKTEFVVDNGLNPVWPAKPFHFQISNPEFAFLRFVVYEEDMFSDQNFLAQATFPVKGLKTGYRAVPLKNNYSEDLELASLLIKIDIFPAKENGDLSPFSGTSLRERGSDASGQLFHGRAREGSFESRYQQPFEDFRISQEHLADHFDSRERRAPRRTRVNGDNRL
Nature of the experiment: Counterscreen for inhibitors of phospholipase C isozymes (PLC-B3): Fluorescence-based biochemical high throughput dose response assay to identify inhibitors of phospholipase C isozymes (PLC-gamma1). (The purpose of a counterscreen is to sort out artefacts and off-target activity.)

For `CCN(CC)CCN1C(=O)c2cccc3cc(N)cc(c23)C1=O`, the AC50 (in general, the midpoint of the concentration-response curve, whichever way the signal moves) in experiment [1] was 0.272 µM (active). For the compound `O=C(O)c1cccc(-n2cccc2/C=C2/NC(=O)N(c3ccc(Cl)cc3)C2=O)c1`, the IC50 – broadly, the concentration that inhibits the measured activity by half – in experiment [2] is > 122 µM (inactive). As to `C=C1C(=O)O[C@@H]2C[C@@H](C)[C@@H]3C=CC(=O)[C@@]3(C)[C@@H](OC(=O)CC(=O)O[C@H]3[C@@H]4C(=C)C(=O)O[C@@H]4C[C@@H](C)[C@@H]4C=CC(=O)[C@]43C)[C@H]12`, the AC50 in experiment [1] is 111 µM (active). As for `O=S(=O)(O)c1cc(Cl)cc(N=Nc2ccc(O)cc2O)c1O`, in experiment [2], the IC50 is > 122 µM (inactive).
